Results reported in patent US11214803B2, “Modulators of YAP1 expression” (Ionis Pharmaceuticals, Inc., priority 2019, dated 2022).
Strand notation (5' to 3'): a small letter for the sugar, then the base; units joined by * are phosphorothioate-linked, units joined directly phosphodiester-linked; [ ] holds rarer units or linkages, { } end groups; capitals alone tell only the bases. e = 2'-O-(2-methoxyethyl) (MOE); k = constrained ethyl (cEt); [5mC] = 5-methylcytosine; d = 2'-deoxy (DNA); m = 2'-O-methyl

system: Yap1 mRNA; test: Antisense inhibition of human Yap1 in SNU-449 cells by modified oligonucleotides, single dose (Example 5, RTS36584); type: cell-based; conditions: Table 39; SNU-449 cells, 10,000 cells per well, free uptake, 2,000 nM oligonucleotide, approx. 48 hours; RTS36584; normalized to RIBOGREEN; Yap1 mRNA relative to untreated control
Procedure, shortened: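 Values are % of untreated control: Yap1 mRNA by quantitative RT-PCR (RTS36584), normalized to RIBOGREEN total RNA. Oligonucleotides were dosed at 2,000 nM, free uptake, in SNU-449 cells, with roughly 48 h exposure before RNA isolation.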

Point of comparison: “1198449 (kA*dA*dG*dT*dA*dA*dG*dG*dT*dT*dT*k[5mC]*e[5mC]*k[5mC]*eA*kG; antisense) [Compound 1198449]”, “YAP1 (% UTC)” value 37 % UTC. Against it:
- 1198455 (kT*dT*dA*dG*dA*d[5mC]*dT*dA*dA*dG*dT*kA*eA*kG*eG*kT) [Compound 1198455] — higher, 42 % UTC
- 1198415 (kG*dA*dT*dT*dT*dA*dG*dG*dA*dT*dG*k[5mC]*eA*kT*eG*kG; antisense) [Compound 1198415] — lower, 29 % UTC

same assay, conditions: Table 40 (separate experiment); SNU-449 cells, 10,000 cells per well, free uptake, 2,000 nM oligonucleotide, approx. 48 hours; RTS36584; normalized to RIBOGREEN; Yap1 mRNA relative to untreated control

Point of comparison: “1198425 (kA*d[5mC]*dT*d[5mC]*dT*dT*dA*dT*dA*dT*dG*kG*eT*kT*eT*kT; antisense) [Compound 1198425]”, “YAP1 (% UTC)” value 35 % UTC. Against it:
- 1198795 (antisense kT*eA*kA*dG*dG*dT*dT*dT*d[5mC]*d[5mC]*d[5mC]*dA*eG*eA*kT*kT) [Compound 1198795] — higher, 43 % UTC
- 1198763 (kG*eA*kT*dT*dT*dA*dG*dG*dA*dT*dG*d[5mC]*eA*eT*kG*kG; antisense) [Compound 1198763] — lower, 26 % UTC
- 1198760 (kT*eT*kA*dG*dG*dA*dT*dG*d[5mC]*dA*dT*dG*eG*eT*kT*kT; antisense) [Compound 1198760] — higher, 91 % UTC
- 1198724 (kA*eG*kA*dG*dT*dA*dT*dG*dT*dG*dG*d[5mC]*eA*eA*kT*kA; antisense) [Compound 1198724] — lower, 16 % UTC
- 1198721 (kA*eT*kG*dG*dA*dA*dA*dT*dT*dG*dT*d[5mC]*eT*e[5mC]*kA*kT; antisense) [Compound 1198721] — higher, 48 % UTC

same assay, conditions: Table 41; SNU-449 cells, 10,000 cells per well, free uptake, 2,000 nM modified oligonucleotide, approximately 48 hours; RTS36584; normalized to RIBOGREEN; Yap1 mRNA relative to untreated control cells

Point of comparison: “1198787 (antisense kA*eG*kT*dG*dT*dA*dT*dG*dT*d[5mC]*dA*dG*eA*eA*kG*kA) [Compound 1198787]”, “YAP1 (% UTC)” value 9 % UTC. Against it:
- 1198736 (kT*eG*kA*dG*dG*dT*dA*dT*dA*dA*d[5mC]*dT*eG*eG*kG*k[5mC]; antisense) [Compound 1198736] — higher, 20 % UTC
- 1198769 (kT*eT*kA*dT*dA*dT*dG*dG*dT*dT*dT*dT*eG*eT*kG*kT; antisense) [Compound 1198769] — higher, 77 % UTC
- 1198663 (antisense k[5mC]*kT*dT*dT*dG*dG*dA*dA*dG*dA*dT*d[5mC]*kT*eG*kA*eA) [Compound 1198663] — higher, 76 % UTC
- 1198658 (kA*kA*dG*d[5mC]*dA*d[5mC]*dT*dT*dT*dT*dA*d[5mC]*kA*eT*kT*eA; antisense) [Compound 1198658] — higher, 62 % UTC
- 1198637 (kA*kG*dT*dA*dT*dG*dT*dG*dG*d[5mC]*dA*dA*kT*eA*kA*eT; antisense) [Compound 1198637] — higher, 64 % UTC

same assay, conditions: Table 42 (separate experiment); SNU-449 cells, 10,000 cells per well, free uptake, 2,000 nM modified oligonucleotide, approximately 48 hours; RTS36584; normalized to RIBOGREEN; Yap1 mRNA relative to untreated control cells

For “1095463 (antisense kA*k[5mC]*dT*dG*dA*dG*dG*dT*dA*dT*dA*dA*k[5mC]*eT*kG*eG) [Compound 1095463]”, the “YAP1 (% UTC)” value was 37 % UTC.

same assay, conditions: Table 43 experiment; SNU-449 cells, 10,000 cells per well, free uptake, 2,000 nM, approximately 48 hours; RTS36584; Yap1 mRNA normalized to RIBOGREEN, relative to untreated control cells

Point of comparison: “1198469 (antisense kA*kT*dT*dA*dG*dA*dG*dT*dA*dT*dG*eT*kG*eG*k[5mC]*eA) [Compound 1198469]”, “YAP1 (% UTC)” value 23 % UTC. Against it:
- 1198257 (kA*dT*dT*dG*d[5mC]*dA*dA*dT*d[5mC]*dT*dG*eT*e[5mC]*eT*kG*kA; antisense) [Compound 1198257] — higher, 85 % UTC
- 1198456 (kT*kG*dT*d[5mC]*dT*d[5mC]*dA*dT*dG*d[5mC]*d[5mC]*eT*kT*eA*kT*eA) [Compound 1198456] — lower, 21 % UTC

same assay, conditions: Table 44 experiment; SNU-449 cells, 10,000 cells per well, free uptake, 2,000 nM, approximately 48 hours; RTS36584; Yap1 mRNA normalized to RIBOGREEN, relative to untreated control cells

Point of comparison: “1198530 (kT*kT*dT*dA*dA*dA*dG*dT*dG*dT*dA*eT*kG*eT*k[5mC]*eA; antisense) [Compound 1198530]”, “YAP1 (% UTC)” value 29 % UTC. Against it:
- 1198891 (kA*kT*dT*dG*dT*d[5mC]*dT*d[5mC]*dA*dT*dG*k[5mC]*d[5mC]*kT*dT*kA) [Compound 1198891] — lower, 18 % UTC
- 1198539 (antisense kG*kA*d[5mC]*dT*dA*dA*dG*dT*dA*dA*dG*eG*kT*eT*kT*e[5mC]) [Compound 1198539] — higher, 54 % UTC
- 1198532 (kA*kA*d[5mC]*dT*dT*dT*dA*dA*dA*dG*dT*eG*kT*eA*kT*eG; antisense) [Compound 1198532] — higher, 36 % UTC

same assay, conditions: Table 45; Yap1 mRNA as percent of untreated control, SNU-449 cells, single dose

Point of comparison: “1095509 (antisense kT*kG*dA*dG*dG*dT*dA*dT*dA*dA*d[5mC]*kT*dG*kG*dG*k[5mC]) [Compound 1095509]”, “YAP1 (% UTC)” value 29 % UTC. Against it:
- 1198954 (kT*kG*dT*dA*dA*dT*dA*dT*dT*dG*d[5mC]*kA*dA*kT*d[5mC]*kT; antisense) [Compound 1198954] — higher, 94 % UTC
- 1198929 (kA*kG*dT*dG*d[5mC]*dT*dT*dT*dG*dG*dA*kA*dG*kA*dT*k[5mC]) [Compound 1198929] — higher, 43 % UTC
- 1198923 (kT*kT*dG*dG*dA*dA*dG*dA*dT*d[5mC]*dT*kG*dA*kA*dA*k[5mC]; antisense) [Compound 1198923] — higher, 73 % UTC

same assay, conditions: Table 46; Yap1 mRNA as percent of untreated control, SNU-449 cells, single dose

For “1198827 (kT*kT*dA*d[5mC]*dA*dT*dT*dA*dG*dG*dA*kA*e[5mC]*kA*eA*kG; antisense) [Compound 1198827]”, the “YAP1 (% UT)” value was 60 % UT.

same assay, conditions: Table 48; Yap1 mRNA level relative to untreated control; modified oligonucleotides targeting SEQ ID NO.: 1 and 2

Point of comparison: “1198316 (kG*kG*kA*dA*dG*dA*dT*d[5mC]*dT*dG*dA*dA*kA*e[5mC]*kT*e[5mC]; antisense) [Compound 1198316]”, “YAP1 (% UT)” value 49 % UT. Against it:
- 1198308 (kT*kT*kT*dT*dA*d[5mC]*dA*dT*dT*dA*dG*dG*kA*eA*k[5mC]*eA; antisense) [Compound 1198308] — higher, 68 % UT
- 1198292 (kA*kT*kA*dT*dG*dG*dA*dA*dA*dT*dT*dG*kT*e[5mC]*kT*e[5mC]; antisense) [Compound 1198292] — higher, 58 % UT
- 1009397 (kA*kA*k[5mC]*dA*d[5mC]*dT*dG*dA*dG*dG*dT*dA*dT*kA*kA*k[5mC]; antisense) [Compound 1009397] — lower, 44 % UT
- 1197217 (antisense kT*kT*kA*dA*dA*dG*dT*dG*dT*dA*dT*dG*dT*k[5mC]*kA*kG) [Compound 1197217] — lower, 8 % UT

same assay, conditions: Table 49; Yap1 mRNA level relative to untreated control; modified oligonucleotides targeting SEQ ID NO.: 1 and 2

Point of comparison: “1198302 (kT*kA*kT*dA*dA*d[5mC]*dT*dG*dG*dG*d[5mC]*dA*kA*eA*kT*eT; antisense) [Compound 1198302]”, “YAP1 (% UT)” value 67 % UT. Against it:
- 1198544 (antisense kA*kA*kT*dT*dG*dT*d[5mC]*dT*d[5mC]*dA*dT*dG*k[5mC]*k[5mC]*kT*eT) [Compound 1198544] — lower, 21 % UT
- 1198360 (kA*kA*k[5mC]*dT*dT*dT*dA*dA*dA*dG*dT*dG*kT*eA*kT*eG; antisense) [Compound 1198360] — higher, 74 % UT
- 1198546 (antisense kG*kA*kA*dA*dT*dT*dG*dT*d[5mC]*dT*d[5mC]*dA*kT*kG*k[5mC]*e[5mC]) [Compound 1198546] — lower, 11 % UT

same assay, conditions: Table 50; Yap1 mRNA remaining as percent of untreated control (UT), SNU-449 cells, single dose

Point of comparison: “1198599 (antisense k[5mC]*kA*kA*d[5mC]*dT*d[5mC]*dT*dT*dA*dT*dA*dT*kG*kG*kT*eT) [Compound 1198599]”, “YAP1 (% UT)” value 90 % UT. Against it:
- 1198621 (kA*kA*kG*dT*dA*dA*dG*dG*dT*dT*dT*d[5mC]*k[5mC]*k[5mC]*kA*eG; antisense) [Compound 1198621] — lower, 80 % UT

same assay, conditions: Table 51; Yap1 mRNA remaining as percent of untreated control (UT), SNU-449 cells, single dose

Point of comparison: “1197274 (kA*kG*kT*dA*mA*dG*dG*dT*dT*dT*d[5mC]*d[5mC]*d[5mC]*kA*kG*kA) [Compound 1197274]”, “YAP1 (% UT)” value 31 % UT. Against it:
- 1197306 (k[5mC]*kA*kA*d[5mC]*mU*d[5mC]*dT*dT*dA*dT*dA*dT*dG*kG*kT*kT; antisense) [Compound 1197306] — higher, 77 % UT
- 1200799 (kA*kT*kA*dT*dT*mA*dG*dA*dG*dT*dA*dT*dG*kT*kG*kG; antisense) [Compound 1200799] — lower, 27 % UT

same assay, conditions: Table 52; Yap1 mRNA, modified oligonucleotides targeting SEQ ID NO: 1 and 2

Point of comparison: “1200804 (kA*kG*kG*dT*dA*mU*dA*dA*d[5mC]*dT*dG*dG*dG*k[5mC]*kA*kA; antisense) [Compound 1200804]”, “YAP1 (% UT)” value 44 % UT. Against it:
- 1200873 (kT*kT*kA*dG*dA*mC*dT*dA*dA*dG*dT*dA*dA*kG*kG*kT; antisense) [Compound 1200873] — higher, 55 % UT
- 1200832 (kA*kT*kT*dT*dA*mG*dG*dA*dT*dG*d[5mC]*dA*dT*kG*kG*kT; antisense) [Compound 1200832] — higher, 61 % UT
- 1200821 (kT*kT*kG*dG*dA*mA*dG*dA*dT*d[5mC]*dT*dG*dA*kA*kA*k[5mC]; antisense) [Compound 1200821] — higher, 59 % UT

same assay, conditions: Yap1 mRNA, percent of untreated control; modified oligonucleotides targeting SEQ ID NO: 1 and 2; Table 47

Point of comparison: “1197208 (antisense kT*kA*kA*dT*dA*dT*dT*dG*d[5mC]*dA*dA*dT*d[5mC]*kT*kG*kT) [Compound 1197208]”, “YAP1 (% UT)” value 66 % UT. Against it:
- 1197226 (antisense kA*kG*kA*d[5mC]*dT*dA*dA*dG*dT*dA*dA*dG*dG*kT*kT*kT) [Compound 1197226] — higher, 67 % UT
- 1197179 (antisense kT*kG*kG*dA*dA*dA*dT*dT*dG*dT*d[5mC]*dT*d[5mC]*kA*kT*kG) [Compound 1197179] — lower, 16 % UT
